Data reported in patent publication US5082772A, “Process for preparing deacetylcephalosporin C” (priority 1988, dated 1992).
Where “and” joins values, the source holds several entries; their conditions need not be identical. Equal values may be shown once. Read-outs that look alike come from different tables or passages of the source.

What was measured:
Assay type in all cases: biochemical
DAOC synthase [1] = biological target: T1, DAOC synthase (Streptomyces clavuligerus, UniProt P18548); test: DAOC synthase activity assay: effect of metal chelators, sulfhydryl reagents and other inhibitors
Description: ^1 Enzymatic reactions were conducted in the presence of […]
FeSO4 and 0.1 mM DTT. The enzyme was incubated with the indicated
inhibitor for 1 min prior to the initiation of the reaction with
(§1) The enzymatic reaction was initiated by addition of penicillin N and was conducted for 15 min at 36° C. The synthase activity was determined by monitoring DAOC formation at 260 nm with HPLC as described by Dotzlaf, J. E., and Yeh, W. K (1987), J. Bacteriol 169, 1611-1618.

DAOC synthase [2] = biological target: T1, DAOC synthase; test: Cofactor and metal ion requirement and stimulation of DAOC synthase activity
Description: as §1

purified synthase [3] = biological target: T2, purified synthase (Streptomyces clavuligerus, UniProt P18548); test: Hydroxylase activity (conversion to DAC)
DAOC synthase [4] = biological target: T1, DAOC synthase; test: Substrate specificity of DAOC synthase (HPLC detection); conditions: optimum conditions for converting penicillin N to DAOC; HPLC detectable
[5] = biological target: T3, recombinantly produced DAOC synthase (Streptomyces clavuligerus, UniProt P18548); test: Kinetics of recombinant enzyme (Lineweaver-Burk); conditions: pH 7.0, 50 mM HEPES buffer, 36° C.
T3 construct: made in house; host or cells: Escherichia coli K12 JM109 (plasmid pOW382)
Description: The kinetics of the native enzyme and recombinant enzyme were determined under the optimal reaction conditions for the enzyme, i.e., at pH 7.0 in 50 mM HEPES buffer at 36° C.

native synthase = biological target: T4, native synthase (Streptomyces clavuligerus, UniProt P18548); test: Kinetics of native synthase, partially purified (Mono Q eluate); conditions: native partially purified enzyme; Tris-HCl buffer, 36° C.
T4 construct: native synthase, evaluated with the partially purified enzyme; endogenous in cells; host or cells: Streptomyces clavuligerus cells, crude extract, three-step purification (Mono Q eluate)

purified synthase [6] = biological target: T2, purified synthase; test: Stoichiometric analysis of conversion of penicillin N to DAOC; conditions: over 60 min of the reaction
Description: In the conversion of penicillin N to DAOC by the purified synthase provided herein, the molar ratio for DAOC formation/penicillin N disappearance over 60 min of the reaction remained in the range of 0.90-0.98 as shown in FIG. 5. The conversion of penicillin N to DAOC was 94% complete under the reaction conditions.

[7] = metal ions: order Zn2+ > Co2+ > Ni2+
[8] = additive 0.1 mM, 0.06 mN FeSO4, 0.1 mM DTT, 1 min incubation with inhibitor before penicillin N
[9] = additive 1.0 mM, 0.06 mN FeSO4, 0.1 mM DTT, 1 min incubation with inhibitor before penicillin N

T2 sequence (P18548 whole entry): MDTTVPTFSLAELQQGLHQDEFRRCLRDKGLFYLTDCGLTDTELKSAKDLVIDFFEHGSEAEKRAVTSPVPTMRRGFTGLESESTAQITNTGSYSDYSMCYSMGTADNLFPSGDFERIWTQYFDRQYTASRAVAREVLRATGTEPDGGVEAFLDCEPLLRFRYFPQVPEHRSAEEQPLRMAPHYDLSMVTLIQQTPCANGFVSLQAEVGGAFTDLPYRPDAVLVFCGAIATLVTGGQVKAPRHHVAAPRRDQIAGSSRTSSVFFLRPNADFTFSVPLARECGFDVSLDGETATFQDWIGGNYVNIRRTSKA
T1 sequence (P18548 whole entry): as above
T4 sequence (P18548 whole entry): as above
T3 sequence (P18548 whole entry): as above

O[C@H](CS)[C@H](O)CS (racemic) [DTT, dithiothreitol]
restoration of synthase activity after DTNB inactivation (DAOC synthase [1]; 2 mM DTT added, 30 min): fully restored | stimulation of DAOC synthase activity (DAOC synthase [2]): stimulated

C=C1CS[C@@H]2[C@H](NC(=O)CCCC(N)C(=O)O)C(=O)N2C1C(=O)O (stereo partly drawn) [3-exomethylenecephalosporin C, 7β-(α-aminoadipamido)-3-exomethylenecepham-4-carboxylic acid]
inhibition of DAOC synthase activity (in words) (DAOC synthase [1]; [7]): strong inhibitor | conversion to DAC by the purified synthase (purified synthase [3]): possesses the ability to convert 3-exomethylenecephalosporin C to DAC

CC1(C)S[C@@H]2[C@H](N)C(=O)N2[C@H]1C(=O)O [6-aminopenicillanic acid]
synthase activity with the compound as substrate (DAOC synthase [4]): No synthase activity was observed

Nc1ncnc2c1ncn2[C@@H]1O[C@H](COP(=O)(O)OP(=O)(O)OP(=O)(O)O)[C@@H](O)[C@H]1O [ATP, adenosine triphosphate]
stimulation of DAOC synthase activity (DAOC synthase [2]): No detectable stimulation

CC1=C(C(=O)O)N2C(=O)[C@@H](NC(=O)CCC[C@@H](N)C(=O)O)[C@H]2SC1 [DAOC, deacetoxycephalosporin C]
conversion to DAC by the purified synthase (purified synthase [3]): lacks the hydroxylase activity for converting DAOC to DAC

O=C(O)c1cc(SSc2ccc([N+](=O)[O-])c(C(=O)O)c2)ccc1[N+](=O)[O-] [DTNB, 5,5'-dithiobis-2-nitrobenzoic acid]
inactivation of the enzyme (DAOC synthase [1]; 0.2 mM DTNB, 0.5 min, 4° C.): complete inactivation | Relative Activity (%) (DAOC synthase [1]; [8]): 70% | Relative Activity (%) (DAOC synthase [1]; [9]): 0% | inhibition of DAOC synthase activity (in words) (DAOC synthase [1]; [7]): highly susceptible to inhibition

O=C(O)CN(CCN(CC(=O)O)CC(=O)O)CC(=O)O [EDTA, ethylenediamine tetraacetic acid]
inhibition of DAOC synthase activity (in words) (DAOC synthase [1]): highly sensitive to inhibition

[Fe+3] [Ferric ion]
replacement of ferrous ion for expression of enzyme activity (DAOC synthase [2]; in the presence of DTT and ascorbate, enzyme slightly less active): can substitute for ferrous ion

O=C(O)CI [Iodoacetic acid, iodoacetic acid]
Relative Activity (%) (DAOC synthase [1]): 100% and 65% | inhibition of DAOC synthase activity (in words) (DAOC synthase [1]): slightly inhibited

CCN1C(=O)C=CC1=O [NEM, N-ethylmaleimide]
Relative Activity (%) (DAOC synthase [1]; [8]): 55% | Relative Activity (%) (DAOC synthase [1]; [9]): 0% | inhibition of DAOC synthase activity (in words) (DAOC synthase [1]; [7]): highly susceptible to inhibition

CC1(C)S[C@@H]2[C@H](NC(=O)[C@H](N)c3ccccc3)C(=O)N2[C@H]1C(=O)O [ampicillin]
synthase activity with the compound as substrate (DAOC synthase [4]): No synthase activity was observed

[Ca] [calcium]
replacement of ferrous ion for expression of enzyme activity (DAOC synthase [2]): could not be replaced

[Co+2] [cobaltous]
inhibition of DAOC synthase activity (in words) (DAOC synthase [1]; [7]): inhibited | replacement of ferrous ion for expression of enzyme activity (DAOC synthase [2]): could not be replaced

[Cu+] [cuprous]
replacement of ferrous ion for expression of enzyme activity (DAOC synthase [2]): could not be replaced

[Fe+2] [ferrous ion]
requirement for expression of catalytic activity (DAOC synthase [2]): requires | Ka [5]: 8 µM | Ka (native synthase): 4 µM

CC1(C)S[C@@H]2[C@H](NC(=O)CCC[C@H](N)C(=O)O)C(=O)N2[C@H]1C(=O)O [isopenicillin N]
synthase activity with the compound as substrate (DAOC synthase [4]): No synthase activity was observed

[Mg] [magnesium]
replacement of ferrous ion for expression of enzyme activity (DAOC synthase [2]): could not be replaced

[Mn+2] [manganous]
replacement of ferrous ion for expression of enzyme activity (DAOC synthase [2]): could not be replaced

[Ni+2] [nickel]
inhibition of DAOC synthase activity (in words) (DAOC synthase [1]; [7]): inhibited | replacement of ferrous ion for expression of enzyme activity (DAOC synthase [2]): could not be replaced

c1cnc2c(c1)ccc1cccnc12 [o-Phenanthroline, 1,10-phenanthroline]
Relative Activity (%) (DAOC synthase [1]; additive 0.02 mM, 0.06 mN FeSO4, 0.1 mM DTT, 1 min incubation with inhibitor before penicillin N): 63% | Relative Activity (%) (DAOC synthase [1]; additive 0.2 mM, 0.06 mN FeSO4, 0.1 mM DTT, 1 min incubation with inhibitor before penicillin N): 0% | inhibition of DAOC synthase activity (in words) (DAOC synthase [1]; [7]): highly sensitive to inhibition

O=O [oxygen]
requirement for expression of catalytic activity (DAOC synthase [2]): requires

O=C(O)c1cc[c]([Hg+])cc1.[OH-] [p-HMB, p-hydroxymercuribenzoate]
Relative Activity (%) (DAOC synthase [1]; [8]): 0% | Relative Activity (%) (DAOC synthase [1]; [9]): 0% | inhibition of DAOC synthase activity (in words) (DAOC synthase [1]; [7]): highly susceptible to inhibition

CC1(C)S[C@@H]2[C@H](NC(=O)Cc3ccccc3)C(=O)N2[C@H]1C(=O)O [penicillin G]
synthase activity with the compound as substrate (DAOC synthase [4]): No synthase activity was observed

CC1(C)S[C@@H]2[C@H](NC(=O)CCC[C@@H](N)C(=O)O)C(=O)N2[C@H]1C(=O)O [penicillin N]
molar ratio for DAOC formation/penicillin N disappearance (purified synthase [6]): 0.90-0.98

CC1(C)S[C@@H]2[C@H](NC(=O)COc3ccccc3)C(=O)N2[C@H]1C(=O)O [penicillin V]
synthase activity with the compound as substrate (DAOC synthase [4]): No synthase activity was observed

[K+] [potassium]
replacement of ferrous ion for expression of enzyme activity (DAOC synthase [2]): could not be replaced

[Na+] [sodium]
replacement of ferrous ion for expression of enzyme activity (DAOC synthase [2]): could not be replaced

[Zn+2] [zinc]
inhibition of DAOC synthase activity (in words) (DAOC synthase [1]; [7]): inhibited | replacement of ferrous ion for expression of enzyme activity (DAOC synthase [2]): could not be replaced
